Numbers after ± are expanded uncertainties.
Test: molar heat capacity at constant pressure
Details: 101.33 kPa, Small (less than 1 g) adiabatic calorimetry

With `COc1ccc(C2(c3ccc(OC)c(C)c3)OC(=O)c3ccccc32)cc1C` [3,3-bis(4-methoxy-3-methylphenyl)-1(3H)-isobenzofuranone] the “molar heat capacity at constant pressure” value (51.48 K, Glass) was 100.37 ± 0.47 J/K/mol, the “molar heat capacity at constant pressure” value (52.14 K, Crystal) was 99.73 ± 0.47 J/K/mol and the “molar heat capacity at constant pressure” value (52.74 K, Glass) was 103.27 ± 0.48 J/K/mol. The “molar heat capacity at constant pressure” value (53.41 K, Crystal) was 102.49 ± 0.48 J/K/mol, the “molar heat capacity at constant pressure” value (54 K, Glass) was 105.75 ± 0.49 J/K/mol and the “molar heat capacity at constant pressure” value (54.68 K, Crystal) was 105 ± 0.49 J/K/mol. For the same compound, the “molar heat capacity at constant pressure” value (55.27 K, Glass) was 108.28 ± 0.5 J/K/mol, the “molar heat capacity at constant pressure” value (55.95 K, Crystal) was 107.6 ± 0.5 J/K/mol and the “molar heat capacity at constant pressure” value (56.53 K, Glass) was 110.76 ± 0.51 J/K/mol. For the same compound, the “molar heat capacity at constant pressure” value (57.22 K, Crystal) was 109.68 ± 0.51 J/K/mol, the “molar heat capacity at constant pressure” value (57.79 K, Glass) was 113.22 ± 0.52 J/K/mol and the “molar heat capacity at constant pressure” value (58.5 K, Crystal) was 112.22 ± 0.52 J/K/mol. The “molar heat capacity at constant pressure” value (59.06 K, Glass) was 115.64 ± 0.53 J/K/mol, the “molar heat capacity at constant pressure” value (59.77 K, Crystal) was 114.59 ± 0.53 J/K/mol and the “molar heat capacity at constant pressure” value (60.33 K, Glass) was 117.82 ± 0.54 J/K/mol. The “molar heat capacity at constant pressure” value (61.05 K, Crystal) was 116.87 ± 0.54 J/K/mol, the “molar heat capacity at constant pressure” value (61.6 K, Glass) was 120.17 ± 0.55 J/K/mol and the “molar heat capacity at constant pressure” value (62.33 K, Crystal) was 119.39 ± 0.55 J/K/mol. The “molar heat capacity at constant pressure” value (62.87 K, Glass) was 122.44 ± 0.56 J/K/mol, the “molar heat capacity at constant pressure” value (63.61 K, Crystal) was 121.85 ± 0.56 J/K/mol and the “molar heat capacity at constant pressure” value (64.15 K, Glass) was 124.78 ± 0.57 J/K/mol. For the same compound, the “molar heat capacity at constant pressure” value (64.89 K, Crystal) was 123.86 ± 0.57 J/K/mol, the “molar heat capacity at constant pressure” value (65.43 K, Glass) was 126.76 ± 0.58 J/K/mol and the “molar heat capacity at constant pressure” value (66.18 K, Crystal) was 125.9 ± 0.57 J/K/mol. The “molar heat capacity at constant pressure” value (66.72 K, Glass) was 129.06 ± 0.59 J/K/mol, the “molar heat capacity at constant pressure” value (67.47 K, Crystal) was 128.08 ± 0.58 J/K/mol and the “molar heat capacity at constant pressure” value (68.01 K, Glass) was 131.4 ± 0.6 J/K/mol. The “molar heat capacity at constant pressure” value (68.77 K, Crystal) was 130.54 ± 0.59 J/K/mol, the “molar heat capacity at constant pressure” value (69.3 K, Glass) was 133.63 ± 0.61 J/K/mol and the “molar heat capacity at constant pressure” value (70.07 K, Crystal) was 132.99 ± 0.6 J/K/mol. The “molar heat capacity at constant pressure” value (70.6 K, Glass) was 136.05 ± 0.62 J/K/mol, the “molar heat capacity at constant pressure” value (71.38 K, Crystal) was 135.25 ± 0.61 J/K/mol and the “molar heat capacity at constant pressure” value (71.91 K, Glass) was 138.21 ± 0.62 J/K/mol. The “molar heat capacity at constant pressure” value (72.69 K, Crystal) was 137.49 ± 0.62 J/K/mol, the “molar heat capacity at constant pressure” value (73.22 K, Glass) was 140.28 ± 0.63 J/K/mol and the “molar heat capacity at constant pressure” value (74.01 K, Crystal) was 139.48 ± 0.63 J/K/mol. For the same compound, the “molar heat capacity at constant pressure” value (74.59 K, Glass) was 142.77 ± 0.64 J/K/mol, the “molar heat capacity at constant pressure” value (75.33 K, Crystal) was 141.75 ± 0.64 J/K/mol and the “molar heat capacity at constant pressure” value (76.03 K, Glass) was 145.08 ± 0.65 J/K/mol. The “molar heat capacity at constant pressure” value (76.66 K, Crystal) was 144.1 ± 0.65 J/K/mol, the “molar heat capacity at constant pressure” value (77.47 K, Glass) was 147.57 ± 0.66 J/K/mol and the “molar heat capacity at constant pressure” value (77.99 K, Crystal) was 146.27 ± 0.66 J/K/mol. For the same compound, the “molar heat capacity at constant pressure” value (78.91 K, Glass) was 149.7 ± 0.67 J/K/mol, the “molar heat capacity at constant pressure” value (79.33 K, Crystal) was 148.82 ± 0.67 J/K/mol and the “molar heat capacity at constant pressure” value (80.36 K, Glass) was 152.24 ± 0.68 J/K/mol. The “molar heat capacity at constant pressure” value (80.67 K, Crystal) was 150.88 ± 0.68 J/K/mol, the “molar heat capacity at constant pressure” value (81.81 K, Glass) was 154.61 ± 0.69 J/K/mol and the “molar heat capacity at constant pressure” value (82.09 K, Crystal) was 152.82 ± 0.68 J/K/mol. For the same compound, the “molar heat capacity at constant pressure” value (83.27 K, Glass) was 156.85 ± 0.7 J/K/mol, the “molar heat capacity at constant pressure” value (83.57 K, Crystal) was 155.34 ± 0.69 J/K/mol and the “molar heat capacity at constant pressure” value (84.73 K, Glass) was 159.35 ± 0.71 J/K/mol. The “molar heat capacity at constant pressure” value (85.06 K, Crystal) was 157.59 ± 0.7 J/K/mol, the “molar heat capacity at constant pressure” value (86.19 K, Glass) was 161.67 ± 0.72 J/K/mol and the “molar heat capacity at constant pressure” value (86.55 K, Crystal) was 160.21 ± 0.71 J/K/mol. For the same compound, the “molar heat capacity at constant pressure” value (87.66 K, Glass) was 164.03 ± 0.73 J/K/mol, the “molar heat capacity at constant pressure” value (88.04 K, Crystal) was 162.51 ± 0.72 J/K/mol and the “molar heat capacity at constant pressure” value (89.14 K, Glass) was 166.13 ± 0.74 J/K/mol. For the same compound, the “molar heat capacity at constant pressure” value (89.54 K, Crystal) was 164.72 ± 0.73 J/K/mol, the “molar heat capacity at constant pressure” value (90.62 K, Glass) was 168.74 ± 0.71 J/K/mol and the “molar heat capacity at constant pressure” value (91.05 K, Crystal) was 167.41 ± 0.7 J/K/mol. The “molar heat capacity at constant pressure” value (92.11 K, Glass) was 171.18 ± 0.71 J/K/mol, the “molar heat capacity at constant pressure” value (92.56 K, Crystal) was 169.71 ± 0.71 J/K/mol and the “molar heat capacity at constant pressure” value (93.61 K, Glass) was 173.56 ± 0.72 J/K/mol. For the same compound, the “molar heat capacity at constant pressure” value (94.08 K, Crystal) was 172.05 ± 0.72 J/K/mol, the “molar heat capacity at constant pressure” value (95.11 K, Glass) was 176.28 ± 0.73 J/K/mol and the “molar heat capacity at constant pressure” value (95.6 K, Crystal) was 174.26 ± 0.72 J/K/mol. For the same compound, the “molar heat capacity at constant pressure” value (96.62 K, Glass) was 178.27 ± 0.74 J/K/mol, the “molar heat capacity at constant pressure” value (97.14 K, Crystal) was 176.64 ± 0.73 J/K/mol and the “molar heat capacity at constant pressure” value (98.14 K, Glass) was 180.03 ± 0.74 J/K/mol. The “molar heat capacity at constant pressure” value (98.67 K, Crystal) was 178.97 ± 0.74 J/K/mol, the “molar heat capacity at constant pressure” value (99.67 K, Glass) was 182.72 ± 0.75 J/K/mol and the “molar heat capacity at constant pressure” value (100.22 K, Crystal) was 181.39 ± 0.75 J/K/mol. The “molar heat capacity at constant pressure” value (101.2 K, Glass) was 185 ± 0.76 J/K/mol, the “molar heat capacity at constant pressure” value (101.77 K, Crystal) was 183.97 ± 0.76 J/K/mol and the “molar heat capacity at constant pressure” value (102.74 K, Glass) was 186.83 ± 0.77 J/K/mol. For the same compound, the “molar heat capacity at constant pressure” value (103.33 K, Crystal) was 186.52 ± 0.77 J/K/mol, the “molar heat capacity at constant pressure” value (104.29 K, Glass) was 189.85 ± 0.78 J/K/mol and the “molar heat capacity at constant pressure” value (104.9 K, Crystal) was 188.69 ± 0.77 J/K/mol. For the same compound, the “molar heat capacity at constant pressure” value (105.85 K, Glass) was 192.15 ± 0.79 J/K/mol, the “molar heat capacity at constant pressure” value (106.48 K, Crystal) was 190.79 ± 0.78 J/K/mol and the “molar heat capacity at constant pressure” value (107.42 K, Glass) was 194.15 ± 0.79 J/K/mol. The “molar heat capacity at constant pressure” value (108.07 K, Crystal) was 193.1 ± 0.79 J/K/mol, the “molar heat capacity at constant pressure” value (109 K, Glass) was 196.63 ± 0.8 J/K/mol and the “molar heat capacity at constant pressure” value (109.72 K, Crystal) was 195.77 ± 0.8 J/K/mol. For the same compound, the “molar heat capacity at constant pressure” value (110.58 K, Glass) was 199.21 ± 0.81 J/K/mol, the “molar heat capacity at constant pressure” value (111.45 K, Crystal) was 198.35 ± 0.81 J/K/mol and the “molar heat capacity at constant pressure” value (112.18 K, Glass) was 201.62 ± 0.82 J/K/mol. The “molar heat capacity at constant pressure” value (113.19 K, Crystal) was 200.89 ± 0.82 J/K/mol, the “molar heat capacity at constant pressure” value (113.78 K, Glass) was 204.03 ± 0.83 J/K/mol and the “molar heat capacity at constant pressure” value (114.95 K, Crystal) was 203.39 ± 0.82 J/K/mol. For the same compound, the “molar heat capacity at constant pressure” value (115.4 K, Glass) was 206.27 ± 0.83 J/K/mol, the “molar heat capacity at constant pressure” value (116.73 K, Crystal) was 205.7 ± 0.83 J/K/mol and the “molar heat capacity at constant pressure” value (117.1 K, Glass) was 208.63 ± 0.84 J/K/mol. The “molar heat capacity at constant pressure” value (118.52 K, Crystal) was 209.32 ± 0.85 J/K/mol, the “molar heat capacity at constant pressure” value (118.89 K, Glass) was 211.16 ± 0.85 J/K/mol and the “molar heat capacity at constant pressure” value (120.34 K, Crystal) was 211.71 ± 0.85 J/K/mol. For the same compound, the “molar heat capacity at constant pressure” value (120.69 K, Glass) was 213.89 ± 0.86 J/K/mol.

From the NIST ThermoML archive (doi:10.1016/j.tca.2016.05.007)
